Reference: patent US20210361628A1, “2-OXOTHIAZOLE COMPOSITIONS FOR TREATMENT OF FIBROTIC DISEASE” (Avexxin AS, priority 2018, published 2021)
pIC50: −log10 of the molar value.

Assays:
[1] = tested on: α-SMA mRNA in RMC (rat mesangial cells); test: TGF-β1 induced α-SMA mRNA expression in RMC mesangial cell line (qRT-PCR); assay type: cell-based; conditions: 5 ng/ml TGF-β1 for 24 h, not significant
Method: (§1) RMC (rat mesangial cells, ATCC® CRL-2573™) were maintained in DMEM with 4500 mg/L glucose (Sigma), 15% FBS, L-glutamine, and 0.4 mg/ml G418. For experiments, 3×10^5 cells/well were seeded in 6-well plates. After five days, post-confluent cells were serum starved for 24 h. They were then pre-incubated with inhibitors for 90 min, before they were treated with 5 ng/ml TGF-β1 for 24 h.
(§2) Total RNA was isolated using the RNeasy Mini Kit (Qiagen). cDNA synthesis was performed with 1 μg total RNA in 20 μl reaction of QuantiTect Reverse Transcription Kit (Qiagen). After synthesis, cDNA was diluted 1:6 with RNase-free water. qRT-PCR was performed with LightCycler 480 SYBR Green I Master (Roche), and the qRT-PCR analyses were carried out using the Lightcycler 96 system (Roche).

[2] = tested on: PGE2 in rat renal mesangial cells; test: IL-1 induced PGE2 in rat renal mesangial cells (EIA); assay type: cell-based; conditions: Mesangial cell, IL-1 stimulation
Method: Cell culture of rat renal mesangial cells were isolated, characterized and cultured as previously described (Pfeilschifter eteil., e1984).84ERLINK “htmesangial cells in 24-well plates were pretreated for 90library.wiley.com/doi/full/10.1111/Compound A before stimulation in a volume of 0.5 mL with IL-1eforenM, Cell Concept GmbH) to induce PGE2Hn in a volume of 0.5 mL with ILcom/doi/full^0C, 5% CO2), the cell suspensions were centrifuged to isolate the supernatant from the cell fraction. Samples were stored at −80° C. until analysis.
Rat mesangial cell supernatants were analyzed by EIA for PGE2 (Assay Designs, BIOTREND Chemikalien GmbH), according to the manufacturers protocols. Data were calculated as pg of PGE2 per 1.3×10^5 cells which was the cell number per well.

[3] = tested on: α-SMA mRNA in NRK-49F cells; test: TGF-β1 induced α-SMA mRNA expression in NRK-49F cells (qRT-PCR); assay type: cell-based, rat; conditions: 5 μM, 10 ng/ml TGF-β1 for 24 h
Method: NRK-49F (normal rat kidney fibroblasts, ATCC® CRL-1570™) were maintained in DMEM with 4500 mg/L glucose, 5% FBS, L-glutamine, and gentamicin. For experiments, 3×10^5 cells/well were seeded in 6-well plates. After three days, post-confluent cells were serum starved for 24 h. They were then pre-incubated with inhibitors for 90 min, before they were treated with 10 ng/ml TGF-β1 for 24 h (mRNA-expression).
as §2

[4] = tested on: PGE2 production in human PBMC; test: LPS-induced PGE2 production in human PBMC (EIA); assay type: cell-based; conditions: LPS 10 ng/mL, 72 hrs
Method: Blood was recruited from healthy donors at St. Olavs Hospital HF, the Bloodbank (project approved by Regional Ethical Committee of Mid-Norway; #2016/553). Peripheral blood mononuclear cells (PBMC) were isolated using SepMate™ separation tubes with LymphoPrep density gradient medium according to the STEMCELL Technology recommendations. For experiments, 1×10^6 cells/well/1 mL RPMI medium supplemented with 5% FBS, 0.3 mg/ml glutamine and 0.1 mg/ml gentamicin with- or without inhibitor. Treatments were added 2 hours prior to the addition of lipopolysaccharides as a potent inducer of inflammation (LPS from E. coli 026:B6 γ-irradiated, Sigma-Aldrich, #L2654). Following treatment (72 hrs., 37° C., 5% CO2), the cell suspensions were centrifuged to isolate the supernatant from the cell fraction. Samples were stored at −80° C. until analysis.
PBMC supernatants were analyzed by enzyme-linked immunosorbent assay (EIA) for PGE2 (Cayman #514010), according to the manufacturers protocols. PBMC supernatants were assayed at dilutions of 1:100, except supernatants from non-LPS treated PBMC that were assayed undiluted in all assays. Supernatants were hybridized over-night incubation, enzymatic conversion of substrate were read at OD420 nm. Data were processed using a 4-parameter logistic fit model.

[5] = tested on: Ptgs2 mRNA in RMC (rat mesangial cells); test: TGF-β1 induced Ptgs2 mRNA expression in RMC (qRT-PCR); assay type: cell-based; conditions: 5 μM, 5 ng/ml TGF-β1 for 24 h
Method: as §1, §2

[6] = tested on: Ptgs2 mRNA in MRC-5 cells; test: TGF-β1 induced Ptgs2 mRNA expression in MRC-5 cells (qRT-PCR); assay type: cell-based, human; conditions: 5 μM, 2 ng/ml TGF-β1 for 24 h
Method: MRC-5 (human lung fibroblast, ATCC® CCL-171™) were maintained in MEM with 10% FBS, L-glutamine, and gentamicin. For experiments, 1×10^5 cells/well were seeded in 6-well plates. After two days, pre-confluent cells were serum starved for 24 h. They were then pre-incubated with inhibitors for 90 min, before they were treated with 2 ng/ml TGF-β1 for 24 h.
as §2

[7] = read-out: estimated IC50 of PGE2 inhibition

SMILES: CCCCCCCOc1ccc(OCC(=O)c2nc(C(=O)OC)cs2)cc1 [Compound A]
- reduction of α-SMA mRNA expression [1]: around 35%
- inhibition at 10 µM ([2]; 10 μM): 65%
- pIC50 [2, 7]: 6.05
- inhibition of TGF-β1 induced expression of α-SMA mRNA [3]: 50%
- PGE2 production ([4]; 10 μM (highest dose), LPS alone 18185+/−11200 pg/mL): 510 ± 406 pg/mL
- pIC50 [4, 7]: 6.36
- Ptgs2 mRNA levels [5]: seem to reduce Ptgs2 mRNA levels
- Ptgs2 expression [6]: reduced Ptgs2 expression
